Measured values from patent US20060183778A1, “Osteogenesis-promotion enhancer and method of screening the same” (priority 2003, published 2006).

Tests used:
Type in all cases: cell-based
[1] = tested on: C2C12 cells; experiment: Test Example 1: bone differentiation of C2C12 cells, alkaline phosphatase (ALP) staining and ALP activity; details: 9 days
Protocol: After the respective cells were cultured for 9 days, a degree of progression of bone differentiation was examined by staining with an alkaline phosphatase (ALP) staining kit #85-3R (Sigma). Quantitative analysis of an ALP activity was conducted according to the Fujii et al. method (e.g., see Fujii M et al, “Mol Biol Cell.” published by American Society for Cell Biology (U.S.A.), 1999, vol. 10, p. 3801-3813] by using a Sigma Fast p-nitrophenyl phosphate tablet set. A protein concentration of each extract was measured by a DC protein assay (Bio-Rad) using a bovine serum albumin as a standard substance.

[2] = tested on: C2C12 cells; experiment: Test Example 4: influence of serum (FBS) concentration on ALP activity of C2C12 cells; details: compound A 1 μM, rhBMP-4 50 ng/ml, FBS 2.5%, 5%, 10% or 20%, 9 days
Protocol: After the respective cells were cultured for 9 days, a degree of progression of bone differentiation was examined by staining with an alkaline phosphatase (ALP) staining kit #85-3R (Sigma). […] Regarding the respective cells, the ALP activity was measured in the same manner as in Test Example 1.

[3] = tested on: Human mesenchymal stem cells (hMSCs); experiment: Test Example 2: calcium accumulation of human mesenchymal stem cells by the von Kossa method; details: serum-free medium, compound A 1 μM with rhBMP-4 50 ng/ml
Protocol: (§1) Quantitative analysis of an ALP activity was conducted in the same manner as in Test Example 1. Accumulation of calcium was measured through visualization by the von Kossa method. That is, the respective cells were immobilized with a phosphate buffered saline (PBS) containing 3% glutaraldehyde, and washed with PBS and with distilled water. The immobilized cells were reacted with 2.5% silver nitrate for 60 minutes while applying light, then washed, and developed with 0.5% hydroquinone for 2 minutes. Excess silver was washed away with a 5% sodium thiosulfate solution.

[4] = tested on: Human mesenchymal stem cells (hMSCs); experiment: Test Example 2: ALP activity of human mesenchymal stem cells; details: serum-free medium, compound A 1 μM with rhBMP-4 50 ng/ml
Protocol: as §1, with “After the respective cells were cultured for 9 days, a degree of progression of bone differentiation was examined by staining with an alkaline phosphatase (ALP) staining kit #85-3R (Sigma). […] Quantitative” for “Quantitative”

## NC(=O)c1ccc(-c2nc(-c3ccc4c(c3)OCO4)c(-c3ccccn3)[nH]2)cc1 [compound A, 4-(4-benzo[1,3]dioxol-5-yl-5-pyridin-2-yl-1H-imidazol-2-yl)benzamide]
[1]; compound A 1 μM with rhBMP-4 50 ng/ml, 5% fetal bovine serum
  activity of accelerating bone differentiation by stimulation of rhBMP-4 (ALP staining / ALP activity): enhanced
[1]; compound A (1 μM) alone, without rhBMP-4, 5% fetal bovine serum
  activity of accelerating bone differentiation of C2C12 cells (ALP staining): not observed
[2]
  activity to enhance the acceleration of osteogenesis (ALP staining / ALP activity) as a function of FBS concentration: decreased with the increase in FBS concentration
[3]
  calcium accumulation induced with rhBMP-4 (von Kossa staining): further enhanced
[4]
  increase in ALP activity induced with rhBMP-4: further enhanced
